In ChEMBL document CHEMBL3992523, “Potent Inhibition of Nitric Oxide-Releasing Bifendate Derivatives against Drug-Resistant K562/A02 Cells in Vitro and in Vivo” (J Med Chem, 2017):
Activity calls are given as the source filed them. The rule behind the calls is not given here.

Experiments:
[1] = species: Homo sapiens; test: Effect on P-gp ATPase activity in human K562/A02 cell membranes assessed as remaining ATP level by measuring relative light units at 200 uM in presence of MgATP measured after 40 mins by luminescence based P-gp-Glo assay
[2] = test system: K562/A02; test: Anti-proliferative activity against P-gp overexpressing/drug resistant human K562/A02 cells measured after 72 hrs by MTS assay; type: functional, cell-based; details: K562/A02, 72 h
[3] = Drug metabolism in P-gp overexpressing/drug resistant human K562/A02 cells assessed as nitric oxide production at 100 uM measured at 240 mins by Griess assay; type: ADME, cell-based; details: k562/a02, 4 h
[4] = test system: K562; test: Anti-proliferative activity against human K562 cells measured after 72 hrs by MTS assay; type: functional, cell-based; details: K562, 72 h
[5] = Resistant factor, ratio of IC50 for P-gp overexpressing/drug resistant human K562/A02 cells to IC50 for human K562 cells; type: functional
[6] = test system: K562/A02; test: Anti-proliferative activity against P-gp overexpressing/drug resistant human K562/A02 cells at 150 uM in presence of hemoglobin measured after 24 hrs by MTS assay; type: functional, cell-based
[7] = test system: K562; test: Effect on rhodamine123 accumulation in human K562 cells at 0.33 to 10 uM measured after 1 hr by flow cytometry; type: functional, cell-based
[8] = species: Homo sapiens; test: Inhibition of P-gp in human K562/A02 cells assessed as increase in intracellular rhodamine123 accumulation at 0.33 to 10 uM measured after 1 hr by flow cytometry; type: cell-based
[9] = test system: K562/A02; test: Antitumor activity against P-gp overexpressing/drug resistant human K562/A02 cells xenografted in BALB/c nude mouse assessed as reduction in tumor size at 4 mg/kg, iv administered every other day for 21 days measured post last dose; type: functional, organism-based
[10] = Toxicity in BALB/c nude mouse administered via ip for every 3 days of four injections; details: in vivo
[11] = test system: K562/A02; test: Antitumor activity against P-gp overexpressing/drug resistant human K562/A02 cells xenografted in BALB/c nude mouse assessed as tumor growth inhibition at 4 mg/kg, iv administered every other day for 21 days measured post last dose relative to control; type: functional; details: 504 h, read-out: TGI
[12] = test system: K562/A02; test: Antitumor activity against P-gp overexpressing/drug resistant human K562/A02 cells xenografted in BALB/c nude mouse assessed as reduction in tumor weight at 4 mg/kg, iv administered every other day for 21 days measured post last dose; type: functional, organism-based
[13] = Permeability in human Caco2 cells assessed as concentration ratio of basolateral to apical side at 100 uM measured at 10 mins post dose by HPLC analysis; type: ADME, cell-based; details: caco-2, 10 min
[14] = Permeability in human Caco2 cells assessed as concentration ratio of basolateral to apical side at 100 uM measured at 5 mins post dose by HPLC analysis; type: ADME, cell-based; details: caco-2, 5 min

| Molecule | IC50 [2] [nM] | IC50 [4] [nM] | Ratio IC50 [5] | other results |
| --- | --- | --- | --- | --- |
| SODIUM ORTHOVANAD | – | – | – | Activity [1]: 242000 RLU |
| COC(=O)c1cc(OC)c2c(c1-c1c(C(=O)OC3CCN(CC(=O)OCCOCCOc4no[n+]([O-])c4S(=O)(=O)c4ccccc4)CC3)cc(OC)c3c1OCO3)OCO2 | 890 | 640 | 1.4 | Drug metabolism [3]: Metabolite_Detected |
| COC(=O)c1cc(OC)c2c(c1-c1c(C(=O)OC3CCN(CC(=O)OC(C)CCOc4no[n+]([O-])c4S(=O)(=O)c4ccccc4)CC3)cc(OC)c3c1OCO3)OCO2 (stereo not drawn) | 760 | 390 | 1.9 | – |
| COC(=O)c1cc(OC)c2c(c1-c1c(C(=O)OCCN3CCN(CC(=O)NCCOc4no[n+]([O-])c4S(=O)(=O)c4ccccc4)CC3)cc(OC)c3c1OCO3)OCO2 | 3010 | 550 | 5.5 | – |
| COC(=O)c1cc(OC)c2c(c1-c1c(C(=O)O)cc(OC)c3c1OCO3)OCO2 | 125000 | 137000 | 0.9 | Drug metabolism [3]: Metabolite_Notdetected; Activity [6]: inactive |
| COc1ccc(CCN(C)CCCC(C#N)(c2ccc(OC)c(OC)c2)C(C)C)cc1OC (stereo not drawn) | – | – | – | Activity [7]: inactive; Activity [1]: 179000 RLU; inhibition [8]: Active |
| COC(=O)c1cc(OC)c2c(c1-c1c(C(=O)OC)cc(OC)c3c1OCO3)OCO2 [BIFENDATE] | > 200000 | > 200000 | – | – |
| COC(=O)c1cc(OC)c2c(c1-c1c(C(=O)OCCN3CCN(CC(=O)OCCOc4no[n+]([O-])c4S(=O)(=O)c4ccccc4)CC3)cc(OC)c3c1OCO3)OCO2 | 2010 | 580 | 3.5 | – |
| COC(=O)c1cc(OC)c2c(c1-c1c(C(=O)OCCN3CCN(CC(=O)OCCCCOc4no[n+]([O-])c4S(=O)(=O)c4ccccc4)CC3)cc(OC)c3c1OCO3)OCO2 | 1570 | 690 | 2.3 | – |
| COC(=O)c1cc(OC)c2c(c1-c1c(C(=O)OCCN3CCN(CC(=O)OC(C)CCOc4no[n+]([O-])c4S(=O)(=O)c4ccccc4)CC3)cc(OC)c3c1OCO3)OCO2 (stereo not drawn) | 810 | 380 | 2.1 | – |
| COC(=O)c1cc(OC)c2c(c1-c1c(C(=O)OCCN3CCN(CC(=O)OCCOCCOc4no[n+]([O-])c4S(=O)(=O)c4ccccc4)CC3)cc(OC)c3c1OCO3)OCO2 | 2300 | 380 | 6.1 | – |
| COc1cccc2c1C(=O)c1c(O)c3c(c(O)c1C2=O)C[C@@](O)(C(=O)CO)C[C@@H]3O[C@H]1C[C@H](N)[C@H](O)[C@H](C)O1.Cl [DOXORUBICIN HYDROCHLORIDE] | 24500 | 590 | 41.5 | Activity [9]: inactive; MTD at 72 h [10]: 4 mg/kg; inhibition in vivo at 4 mg/kg [11]: 18.6%; Activity [12]: inactive |
| COC(=O)c1cc(OC)c2c(c1-c1c(C(=O)OC3CCN(CC(=O)OCCCCOc4nonc4S(=O)(=O)c4ccccc4)CC3)cc(OC)c3c1OCO3)OCO2 | 73000 | 68000 | 1.1 | Drug metabolism [3]: Metabolite_Notdetected |
| COC(=O)c1cc(OC)c2c(c1-c1c(C(=O)OC3CCN(CC(=O)NCCOc4no[n+]([O-])c4S(=O)(=O)c4ccccc4)CC3)cc(OC)c3c1OCO3)OCO2 | 3160 | 1280 | 2.5 | Drug metabolism [3]: Metabolite_Detected |
| COC(=O)c1cc(OC)c2c(c1-c1c(C(=O)OC3CCN(CC(=O)OCCOc4no[n+]([O-])c4S(=O)(=O)c4ccccc4)CC3)cc(OC)c3c1OCO3)OCO2 | 650 | 510 | 1.3 | – |
| O=C(CN1CCC(OC(=O)c2ccccc2)CC1)OCCCCOc1nonc1S(=O)(=O)c1ccccc1 | 6650 | 4060 | 1.6 | – |
| O=C(CN1CCC(O)CC1)OCCCCOc1no[n+]([O-])c1S(=O)(=O)c1ccccc1 | 4110 | 2250 | 1.8 | Ratio [13]: 0.03; Ratio [14]: 0.02 |
| COC(=O)c1cc(OC)c2c(c1-c1c(C(=O)OCCN3CCN(CC(=O)OCCCOc4no[n+]([O-])c4S(=O)(=O)c4ccccc4)CC3)cc(OC)c3c1OCO3)OCO2 | 930 | 750 | 1.2 | Drug metabolism [3]: Metabolite_Detected |
| COC(=O)c1cc(OC)c2c(c1-c1c(C(=O)OC3CCN(CC(=O)OCCCOc4no[n+]([O-])c4S(=O)(=O)c4ccccc4)CC3)cc(OC)c3c1OCO3)OCO2 | 590 | 800 | 0.7 | – |
| COC(=O)c1cc(OC)c2c(c1-c1c(C(=O)OC3CCN(CC(=O)OC(C)(C)CCOc4no[n+]([O-])c4S(=O)(=O)c4ccccc4)CC3)cc(OC)c3c1OCO3)OCO2 | 910 | 870 | 1.1 | – |
| COC(=O)c1cc(OC)c2c(c1-c1c(C(=O)OCCN3CCN(CC(=O)OC(C)(C)CCOc4no[n+]([O-])c4S(=O)(=O)c4ccccc4)CC3)cc(OC)c3c1OCO3)OCO2 | 1510 | 860 | 1.8 | Drug metabolism [3]: Metabolite_Detected |
